Reference: US12390448B2, “Prevention or of disease states due to metal dis-homeostasis via administration of posiphen to healthy or sick humans” (ANNOVIS BIO, INC., priority 2017, dated 2025)
Several values for one entry are separate records, joined by “and”; a condition that tells them apart may be missing. Equal values may be shown once.

How the values were obtained:
[1] = tested on: SNCA; conditions: cited from earlier work
[2] = molecular target: T1, IRP1 (Homo sapiens, UniProt P21399); experiment: Microscale thermophoresis (MST) binding of IRE RNAs to IRP1; conditions: cell free, labeled IRP1 2 nM, without Posiphen; read-out: Kd of IRE RNA binding to IRP1
T1 sequence (P21399 1-889): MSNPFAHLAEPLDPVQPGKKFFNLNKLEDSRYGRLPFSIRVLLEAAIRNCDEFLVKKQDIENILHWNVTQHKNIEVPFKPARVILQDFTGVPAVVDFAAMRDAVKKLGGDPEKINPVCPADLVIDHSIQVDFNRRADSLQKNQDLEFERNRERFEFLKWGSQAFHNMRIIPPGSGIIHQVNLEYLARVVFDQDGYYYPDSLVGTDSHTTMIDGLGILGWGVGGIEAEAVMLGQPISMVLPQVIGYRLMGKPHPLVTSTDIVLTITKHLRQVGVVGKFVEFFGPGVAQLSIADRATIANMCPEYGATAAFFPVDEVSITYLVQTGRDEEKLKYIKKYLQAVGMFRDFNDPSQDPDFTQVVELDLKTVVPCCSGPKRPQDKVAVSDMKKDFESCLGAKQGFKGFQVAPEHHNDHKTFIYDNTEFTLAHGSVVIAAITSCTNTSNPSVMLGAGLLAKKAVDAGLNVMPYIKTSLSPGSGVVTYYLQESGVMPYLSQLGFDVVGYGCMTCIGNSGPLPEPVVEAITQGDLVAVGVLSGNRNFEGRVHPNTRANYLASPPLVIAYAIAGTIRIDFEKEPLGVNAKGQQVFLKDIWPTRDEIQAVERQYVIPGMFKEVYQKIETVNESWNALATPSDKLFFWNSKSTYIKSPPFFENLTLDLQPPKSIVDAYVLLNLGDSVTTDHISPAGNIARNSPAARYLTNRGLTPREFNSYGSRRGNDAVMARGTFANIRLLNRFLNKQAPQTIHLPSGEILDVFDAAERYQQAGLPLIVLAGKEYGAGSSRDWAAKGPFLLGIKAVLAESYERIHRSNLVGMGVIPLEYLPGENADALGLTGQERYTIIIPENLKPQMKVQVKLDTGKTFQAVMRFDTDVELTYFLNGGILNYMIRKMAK
Protocol: (§1) Microscale thermophoresis (MST) binding experiments were done to assess binding in vitro between the different components. MST binding experiments were performed by incubating N-termini labeled protein (2 nM) with serial 2-fold dilutions of IRE RNAs, H-Ferritin ([…]) or APP ([…]) for 10 min in incubation buffer (Tris pH 7.4, 0.5%, 15 mM NaCl and 0.1% Prionex). IPR-1 was N-termini labeled with RED-NHS amino reactive labeling kit (NanoTemper Technologies, Germany). For determination of Posiphen binding, reactions containing IPR1 (2 nM), IRP1/H-Ferritin (2, 250 nM), or IRP1/APP (2, 600 nM) were incubated for 10 min with 2-fold dilutions of Posiphen tartrate. After incubation, samples were centrifuged at 13,000 rpm for 2 minutes before being loaded into standard capillaries provided by the manufacturer. Fluorescence values from the binding reactions were determined using the Monolith NT.115 (Nano Temper Technologies). Kd values were using the NanoTemper Technologies software. Conditions were standardized.

[3] = molecular target: T2, IRP1/H-Ferritin RNA complex (Homo sapiens, UniProt P21399); experiment: MST binding of Posiphen to IRP1/H-Ferritin RNA complex; conditions: IRP1/H-Ferritin 2, 250 nM; Posiphen tartrate
T2 sequence (P21399 1-889): T1 sequence (P21399 1-889)
Protocol: as §1

[4] = tested on: neurotoxic aggregating proteins; experiment: Translation of neurotoxic aggregating proteins in healthy mouse brain; format: in vivo
Excerpt: Therefore, the original data concerning the effects of Posiphen working under all conditions is wrong. It only works in stressed cells, dividing cells and sick cells, e.g., those cells that have high levels of iron.

[5] = cited from earlier work
[6] = molecular target: T3, IRP1/APP RNA complex (Homo sapiens, UniProt P21399); experiment: MST binding of Posiphen to IRP1/APP RNA complex; conditions: IRP1/APP 2, 600 nM; Posiphen tartrate; read-out: Kd, binding of Posiphen to APP IRE/IRP1 complex
T3 sequence (P21399 1-889): T1 sequence (P21399 1-889)
Protocol: as §1

[7] = tested on: retinal neurons; experiment: Acute glaucoma in rats, retinal cell death; format: in vivo; conditions: acute glaucoma by raised intraocular pressure
Excerpt: When acute glaucoma is induced by increasing the pressure in an eye, the retina gets destroyed. In Example 10, acute glaucoma was induced in rats by increasing intraocular pressure by micro-injection of saline into the anterior chamber. This induces large amounts of apoptotic cell death in the retina. There are twice as many dead cells in high pressure retinas of rats treated with vehicle versus control untreated rats. Posiphen rescued 72% of the retinal neurons. The results are depicted in FIG. 23. Administration of Posiphen to those rats preserves the retina and protects the retinal cells from dying.

[8] = tested on: aSYN; experiment: aSYN in enteric nervous system of transgenic PD mice; format: in vivo; conditions: PAC-Tg(SNCAA53T) mice, 21 weeks
Protocol: In Example 6, the effect of Posiphen on mice homozygous for the PAC-Tg(SNCAA53T) transgene was tested over the course of 21 weeks.

Q: Which “SNCA expression in neural cells, Western blotting” value [1] does the source give for `C[C@]12CC[C@H]3[C@@H](CC[C@]4(O)C[C@@H](O)CC[C@]34C=O)[C@@]1(O)CC[C@@H]2C1=CC(=O)OC1` [strophanthidine] here?
A: selectively blocked

Q: With “H-Ferritin: H-Ferritin IRE RNA oligo GGGGUUUCCUGCUUCAACAGUGCUUGGACGGAACC (RNA, backbone not given here)” as the compound, how does the Kd [2] read?
A: 88.5 nM

Q: What does the source list for `CN1CC[C@]2(C)c3cc(OC(=O)Nc4ccccc4)ccc3N(C)C12` (stereo partly drawn) [Posiphen, (3aR)-1,3a,8-trimethyl-1,2,3,3a,8,8a-hexahydropyrrolo[2,3-b]indol-5-ylphenylcarbamate]?
A: binding of Posiphen to the IRP1/H-Ferritin RNA complex [3]: no binding; translation of neurotoxic aggregating proteins [4]: does not inhibit; tolerability ([5]; doses up to 4×60 mg daily×10 days, humans): well tolerated; terminal half-life in plasma ([5]; human, all doses): 4.3 to 4.7 h; Kd [6]: 3.2 nM and 3.22 nM; retinal neurons rescued [7]: 72%; inhibition of aSYN in enteric nerves [8]: about 40%

Q: With “APP: APP IRE RNA oligo GGUGGCGGCGCGGGCAGAGCAAGGACGCGGCGGAU (RNA, backbone not given here)” as the compound, how does the Kd [2] read?
A: 225 nM
